Data on 27 molecules can be found in patent US20250197407A1 (Jazz Pharmaceuticals Ireland Limited, priority 2022, published 2025).

For the assay, the target named is SOS1/KRAS WT (Homo sapiens (Human), UniProt Q07889). The assay is described as follows: SOS1/KRAS WT HTRF binding assay (FRET-based protein-protein interaction). As to conditions: inhibition of His6-SOS1 (aa564-1049, 40 nM) binding to GST-KRAS-WT (aa1-188, 40 nM); at least two independent replicates; read-out: SOS1/KRAS WT HTRF Binding assay pIC50 (converted). The method, boiled down: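 GST-KRAS WT (aa1-188, 40 nM) and His6-SOS1 exchange domain (aa564-1049, 40 nM) were incubated 60 min at room temperature with compound dose response in HEPES pH7.3 buffer with 10 mM EDTA and 100 mM KF. Anti-GST-Eu(K)/anti-6His-XL665 HTRF was read after 4 hr, and IC50 came from a four-parameter fit (≥2 replicates).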
Sequence of SOS1/KRAS WT (Q07889 564-1049): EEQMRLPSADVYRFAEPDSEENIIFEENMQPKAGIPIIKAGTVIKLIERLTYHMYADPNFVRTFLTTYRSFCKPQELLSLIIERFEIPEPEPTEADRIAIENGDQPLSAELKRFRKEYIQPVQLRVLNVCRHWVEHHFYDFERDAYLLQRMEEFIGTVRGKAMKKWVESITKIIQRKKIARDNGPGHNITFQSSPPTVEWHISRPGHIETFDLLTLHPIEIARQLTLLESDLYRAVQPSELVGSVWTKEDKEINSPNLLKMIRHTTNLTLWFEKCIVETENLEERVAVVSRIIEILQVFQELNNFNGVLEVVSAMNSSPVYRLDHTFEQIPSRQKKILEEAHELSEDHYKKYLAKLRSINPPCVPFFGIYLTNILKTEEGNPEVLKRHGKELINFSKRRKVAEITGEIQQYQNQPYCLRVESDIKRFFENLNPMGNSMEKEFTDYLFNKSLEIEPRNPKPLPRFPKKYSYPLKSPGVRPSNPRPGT
(In TR-FRET formats the signal depends on donor and acceptor labels being close together.)
`Cc1nnc(N[C@H](C)c2cccc(C(F)(F)F)c2)c2cc3c(cc12)n(C)c(=O)n3CC#N` [Compound 148, 2-[1,8-dimethyl-2-oxo-5-[[(1R)-1-[3-(trifluoromethyl)phenyl]ethyl]amino]imidazo[4,5-g]phthalazin-3-yl]acetonitrile]: the IC50 was 21.4 nM. Next, `Cc1nnc(N[C@H](C)c2cccc(C(F)(F)F)c2)c2cc3c(cc12)n(C)c(=O)n3C(C)C#N` (stereo partly drawn) [Compound 149, 2-[1,8-dimethyl-2-oxo-5-[[(1R)-1-[3-(trifluoromethyl)phenyl]ethyl]amino]imidazo[4,5-g]phthalazin-3-yl]propanenitrile]: 10.2 nM.

In the case of `Cc1c(-c2ccnn2C)cccc1[C@@H](C)Nc1nnc(C)c2cc3c(cc12)n(C)c(=O)n3C` [Compound 150, 1,3,8-trimethyl-5-[[(1R)-1-[2-methyl-3-(2-methylpyrazol-3-yl)phenyl]ethyl]amino]imidazo[4,5-g]phthalazin-2-one], the IC50 was 8.91 nM. Under `Cc1c(-c2ccn(C)n2)cccc1[C@@H](C)Nc1nnc(C)c2cc3c(cc12)n(C)c(=O)n3C` [Compound 151, 1,3,8-trimethyl-5-[[(1R)-1-[2-methyl-3-(1-methylpyrazol-3-yl)phenyl]ethyl]amino]imidazo[4,5-g]phthalazin-2-one] stands 11 nM. Next, `Cc1c(-c2cc(C(F)(F)F)nn2C)cccc1[C@@H](C)Nc1nnc(C)c2cc3c(cc12)n(C)c(=O)n3C` [Compound 152, 1,3,8-trimethyl-5-[[(1R)-1-[2-methyl-3-[2-methyl-5-(trifluoromethyl)pyrazol-3-yl]phenyl]ethyl]amino]imidazo[4,5-g]phthalazin-2-one]: 85.1 nM; `Cc1c(-c2cncnc2)cccc1[C@@H](C)Nc1nnc(C)c2cc3c(cc12)n(C)c(=O)n3C` [Compound 153, 1,3,8-trimethyl-5-[[(1R)-1-(2-methyl-3-pyrimidin-5-yl-phenyl)ethyl]amino]imidazo[4,5-g]phthalazin-2-one]: 107 nM. Next, `Cc1c(C2CC2)cccc1[C@@H](C)Nc1nnc(C)c2cc3c(cc12)n(C)c(=O)n3C` [Compound 154, 1,3,8-trimethyl-5-[[(1R)-1-(3-cyclopropyl-2-methyl-phenyl)ethyl]amino]imidazo[4,5-g]phthalazin-2-one]: 15.8 nM; `Cc1c(-c2ccn[nH]2)cccc1[C@@H](C)Nc1nnc(C)c2cc3c(cc12)n(C)c(=O)n3C` [Compound 155, 1,3,8-trimethyl-5-[[(1R)-1-[2-methyl-3-(1H-pyrazol-5-yl)phenyl]ethyl]amino]imidazo[4,5-g]phthalazin-2-one]: 30.9 nM. Consider `Cc1cc(-c2cccc([C@@H](C)Nc3nnc(C)c4cc5c(cc34)n(C)c(=O)n5C)c2C)n(C)n1` [Compound 156, 1,3,8-trimethyl-5-[[(1R)-1-[3-(2,5-dimethylpyrazol-3-yl)-2-methyl-phenyl]ethyl]amino]imidazo[4,5-g]phthalazin-2-one], for which the IC50 was 89.1 nM.

Turning to `Cc1c(C2=CCOCC2)cccc1[C@@H](C)Nc1nnc(C)c2cc3c(cc12)n(C)c(=O)n3C` [Compound 157, 5-[[(1R)-1-[3-(3,6-dihydro-2H-pyran-4-yl)-2-methyl-phenyl]ethyl]amino]-1,3,8-trimethyl-imidazo[4,5-g]phthalazin-2-one], the IC50 is 204 nM.

Regarding `Cc1c(C2=CCNC2)cccc1[C@@H](C)Nc1nnc(C)c2cc3c(cc12)n(C)c(=O)n3C` [Compound 158, 1,3,8-trimethyl-5-[[(1R)-1-[3-(2,5-dihydro-1H-pyrrol-3-yl)-2-methyl-phenyl]ethyl]amino]imidazo[4,5-g]phthalazin-2-one], the IC50 was 120 nM. Next, `Cc1c(-c2cncs2)cccc1[C@@H](C)Nc1nnc(C)c2cc3c(cc12)n(C)c(=O)n3C` [Compound 159, 1,3,8-trimethyl-5-[[(1R)-1-(2-methyl-3-thiazol-5-yl-phenyl)ethyl]amino]imidazo[4,5-g]phthalazin-2-one]: 17.8 nM; `Cc1c(C2CCOCC2)cccc1[C@@H](C)Nc1nnc(C)c2cc3c(cc12)n(C)c(=O)n3C` [Compound 160, 1,3,8-trimethyl-5-[[(1R)-1-(2-methyl-3-tetrahydropyran-4-yl-phenyl)ethyl]amino]imidazo[4,5-g]phthalazin-2-one]: 269 nM. For `Cc1c(C2CCNC2)cccc1[C@@H](C)Nc1nnc(C)c2cc3c(cc12)n(C)c(=O)n3C` (stereo partly drawn) [Compound 161, 1,3,8-trimethyl-5-[[(1R)-1-(2-methyl-3-pyrrolidin-3-yl-phenyl)ethyl]amino]imidazo[4,5-g]phthalazin-2-one], the IC50 was 589 nM.

Take `CCOC1(C)C(=O)N(C2CC2)c2cc3c(N[C@H](C)c4cccc(C(F)(F)CO)c4)nnc(C)c3cc21` (stereo partly drawn) [Compound 162, 1-cyclopropyl-8-[[(1R)-1-[3-(1,1-difluoro-2-hydroxy-ethyl)phenyl]ethyl]amino]-3-ethoxy-3,5-dimethyl-pyrrolo[3,2-g]phthalazin-2-one]: the IC50 was 9.12 nM.

In the case of `CCOC1(C)C(=O)N(C2CC2)c2cc3c(N[C@H](C)c4cccc(C(F)(F)C(C)(C)O)c4F)nnc(C)c3cc21` (stereo partly drawn) [Compound 163, 1-cyclopropyl-3-ethoxy-3,5-dimethyl-8-[[(1R)-1-[3-(1,1-difluoro-2-hydroxy-2-methyl-propyl)-2-fluoro-phenyl]ethyl]amino]pyrrolo[2,3-g]phthalazin-2-one], the IC50 is 10.7 nM. Take `CCOC1(C)C(=O)N(C2CC2)c2cc3c(N[C@H](C)c4cccc(C(F)(F)CO)c4F)nnc(C)c3cc21` (stereo partly drawn) [Compound 164, 1-cyclopropyl-3-ethoxy-3,5-dimethyl-8-[[(1R)-1-[3-(1,1-difluoro-2-hydroxy-ethyl)-2-fluoro-phenyl]ethyl]amino]pyrrolo[2,3-g]phthalazin-2-one]: the IC50 was 11.5 nM. Regarding `CCOC1(C)C(=O)N(C2CC2)c2cc3c(N[C@H](C)c4cccc(C(F)(F)C(C)(C)O)c4)nnc(C)c3cc21` (stereo partly drawn) [Compound 165, 1-cyclopropyl-3-ethoxy-3,5-dimethyl-8-[[(1R)-1-[3-(1,1-difluoro-2-hydroxy-2-methyl-propyl)phenyl]ethyl]amino]pyrrolo [2,3-g]phthalazin-2-one], the IC50 was 10 nM. Take `CCOC1(C)C(=O)N(C2CC2)c2cc3c(N[C@H](C)c4cccc(C(F)(F)C(C)(C)O)c4C)nnc(C)c3cc21` (stereo partly drawn) [Compound 166, 1-cyclopropyl-3-ethoxy-3,5-dimethyl-8-[[(1R)-1-[3-(1,1-difluoro-2-hydroxy-2-methyl-propyl)-2-methyl-phenyl]ethyl]amino]pyrrolo[2,3-g]phthalazin-2-one]: the IC50 was 14.8 nM. Consider `CCOC1(C)C(=O)N(C2CC2)c2cc3c(N[C@H](C)c4cccc(C(F)(F)CO)c4C)nnc(C)c3cc21` (stereo partly drawn) [Compound 167, 1-cyclopropyl-3-ethoxy-3,5-dimethyl-8-[[(1R)-1-[3-(1,1-difluoro-2-hydroxy-ethyl)-2-methyl-phenyl]ethyl]amino]pyrrolo[2,3-g]phthalazin-2-one], for which the IC50 is 12.6 nM.

For the molecule `CCN1C(=O)C(C)(OC)c2cc3c(C)nnc(N[C@H](C)c4cccc(C(F)(F)CO)c4C)c3cc21` (stereo partly drawn) [Compound 168, 1-ethyl-3-methoxy-3,5-dimethyl-8-[[(1R)-1-[3-(1,1-difluoro-2-hydroxy-ethyl)-2-methyl-phenyl]ethyl]amino]pyrrolo[2,3-g]phthalazin-2-one], the IC50 is 8.91 nM.

On to `CCN1C(=O)C(C)(OC)c2cc3c(C)nnc(N[C@H](C)c4cccc(C(F)(F)C(C)(C)O)c4C)c3cc21` (stereo partly drawn) [Compound 169, 1-ethyl-3-methoxy-3,5-dimethyl-8-[[(1R)-1-[3-(1,1-difluoro-2-hydroxy-2-methyl-propyl)-2-methyl-phenyl]ethyl]amino]pyrrolo[2,3-g]phthalazin-2-one], for which the IC50 was 10.2 nM. On to `CCN1C(=O)C(C)(OC)c2cc3c(C)nnc(N[C@H](C)c4cccc(C(F)(F)C(C)(C)O)c4F)c3cc21` (stereo partly drawn) [Compound 170, 1-ethyl-3-methoxy-3,5-dimethyl-8-[[(1R)-1-[3-(1,1-difluoro-2-hydroxy-2-methyl-propyl)-2-fluoro-phenyl]ethyl]amino]pyrrolo[2,3-g]phthalazin-2-one], for which the IC50 is 9.12 nM. `CCN1C(=O)C(C)(OC)c2cc3c(C)nnc(N[C@H](C)c4cccc(C(F)(F)CO)c4)c3cc21` (stereo partly drawn) [Compound 171, 1-ethyl-3-methoxy-3,5-dimethyl-8-[[(1R)-1-[3-(1,1-difluoro-2-hydroxy-ethyl)phenyl]ethyl]amino]pyrrolo [2,3-g]phthalazin-2-one]: the IC50 was 9.77 nM. With `CCN1C(=O)C(C)(OC)c2cc3c(C)nnc(N[C@H](C)c4cccc(C(F)(F)CO)c4F)c3cc21` (stereo partly drawn) [Compound 172, 1-ethyl-3-methoxy-3,5-dimethyl-8-[[(1R)-1-[3-(1,1-difluoro-2-hydroxy-ethyl)-2-fluoro-phenyl]ethyl]amino]pyrrolo[2,3-g]phthalazin-2-one], the IC50 is 9.77 nM. Under `CCN1C(=O)C(C)(OC)c2cc3c(C)nnc(N[C@H](C)c4cccc(C(F)(F)C(C)(C)O)c4)c3cc21` (stereo partly drawn) [Compound 173, 1-ethyl-3-methoxy-3,5-dimethyl-8-[[(1R)-1-[3-(1,1-difluoro-2-hydroxy-2-methyl-propyl)phenyl]ethyl]amino]pyrrolo [2,3-g]phthalazin-2-one] stands 11.7 nM; under `COC1(C)C(=O)N(C)c2cc3c(C)nnc(N[C@H](C)c4cccc(C(F)(F)C(C)(C)O)c4C)c3cc21` (stereo partly drawn) [Compound 174, 3-methoxy-1,3,8-trimethyl-5-[[(1R)-1-[3-(1,1-difluoro-2-hydroxy-2-methyl-propyl)-2-methyl-phenyl]ethyl]amino]pyrrolo[3,2-g]phthalazin-2-one], 15.8 nM.
